Experimental data taken from patent US6914045B2, “Glycopeptide antibiotics” (Wyeth Holdings Corporation, priority 2001, dated 2005).
In brackets after ≈: the same amount, converted by molar mass.

Legend:
[1] = system: Enterococcus sp.; assay: in vitro antibacterial evaluation, MIC by broth dilution; type: cell-based; conditions: broth dilution, 18 hours at 35° C.
In short: (§1)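 MIC, the lowest antibiotic concentration preventing growth, was read across 64-0.06 μg/mL with 5×10^5 CFU/mL inoculum. Method followed NCCLS M7-A2 broth dilution using Mueller-Hinton II; Gram-positive strains covered recent methicillin-, penicillin- and/or vancomycin-resistant clinical isolates.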

[2] = system: Staphylococcus sp.; assay: as above; type: cell-based; conditions: broth dilution, 18 hours at 35° C.
In short: as §1

[3] = system: Streptococcus sp.; assay: as above; type: cell-based; conditions: broth dilution, 18 hours at 35° C.
In short: as §1

[4] = clinical pathology (serum clinical chemistry) in mice; type: in vivo; conditions: CD-1 mice, 20 mg/kg intravenously daily for 9 days, sera day 10
Procedure: 20-day-old CD-1 mice were divided into a vehicle control group (5 mice) and a treatment group (5 mice). Samples of glycopeptide antibiotics were administered at 20 mg/kg intravenously daily for 9 days.

[5] = anatomic pathology (histopathology of heart and kidney) in mice; type: in vivo; conditions: CD-1 mice, 20 mg/kg intravenously daily for 9 days, necropsy day 10, microscopic histopathology
Procedure: Samples of tissues from necropsied mice were formalin-fixed, paraffin-embedded, sectioned, stained with hematoxylin and eosin, and examined microscopically. Histopathologic findings were recorded. These findings were subjectively graded on a scale corresponding to slight, mild, moderate, marked and severe as compared to untreated controls.

[6] = system: Escherichia coli; assay: in vitro antibacterial evaluation, MIC by broth dilution; type: cell-based; conditions: 18 hours at 35° C.
In short: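 MIC is the lowest antibiotic concentration (tested 64-0.06 μg/mL) preventing growth of a 5×10^5 CFU/mL inoculum. Determined by broth dilution in Mueller-Hinton II medium following NCCLS standard M7-A2.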

Structure (SMILES): CC(c1ccccc1)C1NC(=O)CNC(=O)C(CO)NC(=O)C(C(O)C2CN(Cc3ccccc3-c3ccccc3)C(=N)N2C2OC(CO)C(O)C(O)C2O)NC(=O)C(C(O)C2CNC(=N)N2)NC(=O)C(Cc2ccc(OC3OC(CO)C(OC4OC(CO)C(O)C(O)C4O)C(O)C3O)cc2)NC1=O (centres unmarked) [Example 65]
- MIC Enterococcus avium (GC 4558) ([1]; Enterococcus avium (GC 4558)): 128 µg/mL (≈ 87.6 µM)
- MIC Enterococcus faecalis (ATCC 29212) ([1]; Enterococcus faecalis (ATCC 29212)): >128 µg/mL
- MIC Enterococcus faecalis (GC 4552) ([1]; Enterococcus faecalis (GC 4552)): >128 µg/mL
- MIC Enterococcus faecalis (GC 4553) ([1]; Enterococcus faecalis (GC 4553)): 128 µg/mL (≈ 87.6 µM)
- MIC Enterococcus faecalis (GC 4554) ([1]; Enterococcus faecalis (GC 4554)): >128 µg/mL
- MIC Enterococcus faecalis (GC 6189) ([1]; Enterococcus faecalis (GC 6189)): >128 µg/mL
- MIC Enterococcus faecium (GC 2243) ([1]; Enterococcus faecium (GC 2243)): 128 µg/mL (≈ 87.6 µM)
- MIC Enterococcus faecium (GC 4556) ([1]; Enterococcus faecium (GC 4556)): >128 µg/mL
- MIC Enterococcus faecium (GC 4557) ([1]; Enterococcus faecium (GC 4557)): 128 µg/mL (≈ 87.6 µM)
- MIC Enterococcus avium (GC 4558) [1]: 128 µg/mL (≈ 87.6 µM)
- MIC Enterococcus faecalis (ATCC 29212) [1]: >128 µg/mL
- MIC Enterococcus faecalis (GC 2242) [1]: >128 µg/mL
- MIC Enterococcus faecalis (GC 2691) [1]: >128 µg/mL
- MIC Enterococcus faecalis (GC 3059) [1]: >128 µg/mL
- MIC Enterococcus faecalis (GC 4552) [1]: >128 µg/mL
- MIC Enterococcus faecalis (GC 4553) [1]: 128 µg/mL (≈ 87.6 µM)
- MIC Enterococcus faecalis (GC 4554) [1]: >128 µg/mL
- MIC Enterococcus faecalis (GC 6189) [1]: >128 µg/mL
- MIC Enterococcus faecium (GC 2243) [1]: 128 µg/mL (≈ 87.6 µM)
- MIC Enterococcus faecium (GC 4556) [1]: >128 µg/mL
- MIC Enterococcus faecium (GC 4557) [1]: 128 µg/mL (≈ 87.6 µM)
- MIC Enterococcus faecalis (GC 2242) ([1]; strain GC 2242): >128 µg/mL
- MIC Enterococcus faecalis (GC 2691) ([1]; strain GC 2691): >128 µg/mL
- MIC Enterococcus faecalis (GC 3059) ([1]; strain GC 3059): >128 µg/mL
- MIC Staphylococcus aureus (ATCC 29213) ([2]; strain ATCC 29213): >128 µg/mL
- MIC Staphylococcus aureus (GC 1131) ([2]; strain GC 1131): >128 µg/mL
- MIC Staphylococcus aureus (GC 3051) ([2]; strain GC 3051): >128 µg/mL
- MIC Staphylococcus aureus (GC 3053) ([2]; strain GC 3053): >128 µg/mL
- MIC Staphylococcus aureus (GC 4541) ([2]; strain GC 4541): >128 µg/mL
- MIC Staphylococcus aureus (GC 4542) ([2]; strain GC 4542): >128 µg/mL
- MIC Staphylococcus aureus-SMITH (GC 4543) ([2]; strain GC 4543): >128 µg/mL
- MIC Staphylococcus aureus (GC 4544) ([2]; strain GC 4544): >128 µg/mL
- MIC Staphylococcus aureus (GC 4545) ([2]; strain GC 4545): >128 µg/mL
- MIC Staphylococcus haemolyticus (GC 4546) ([2]; strain GC 4546): >128 µg/mL
- MIC Coagulase Negative Staphylococcus (GC 4547) ([2]; strain GC 4547): >128 µg/mL
- MIC Coagulase Negative Staphylococcus (GC 4548) ([2]; strain GC 4548): >128 µg/mL
- MIC Coagulase Negative Staphylococcus (GC 4549) ([2]; strain GC 4549): >128 µg/mL
- MIC Coagulase Negative Staphylococcus (GC 4551) ([2]; strain GC 4551): >128 µg/mL
- MIC Streptococcus agalactiae (GC 4564) [3]: >128 µg/mL
- MIC Streptococcus pneumoniae (ATCC 6301) [3]: 128 µg/mL (≈ 87.6 µM)
- MIC Streptococcus pneumoniae (GC 1894) [3]: 128 µg/mL (≈ 87.6 µM)
- MIC Streptococcus pneumoniae (GC 4565) [3]: 128 µg/mL (≈ 87.6 µM)
- MIC Streptococcus pyogenes (GC 4563) [3]: 128 µg/mL (≈ 87.6 µM)
- MIC Streptococcus pneumoniae (ATCC 6301) ([3]; strain ATCC 6301): 128 µg/mL (≈ 87.6 µM)
- MIC Streptococcus pneumoniae (GC 1894) ([3]; strain GC 1894): 128 µg/mL (≈ 87.6 µM)
- MIC Streptococcus pyogenes (GC 4563) ([3]; strain GC 4563): 128 µg/mL (≈ 87.6 µM)
- MIC Streptococcus agalactiae (GC 4564) ([3]; strain GC 4564): >128 µg/mL
- MIC Streptococcus pneumoniae (GC 4565) ([3]; strain GC 4565): 128 µg/mL (≈ 87.6 µM)
- Clinical Chemistry (Day 10) % of Control, ALT [4]: +196%
- Clinical Chemistry (Day 10) % of Control, AST [4]: +182%
- Clinical Chemistry (Day 10) % of Control, BUN [4]: +161%
- Anatomical Pathology (Day 10), Heart [5]: 0
- Anatomical Pathology (Day 10), Kidney [5]: +++
- MIC Escherichia coli (ATCC 25922) [6]: >128 µg/mL
- MIC Escherichia coli (GC 4559) [6]: >128 µg/mL
- MIC Escherichia coli (GC 4560) [6]: 32 µg/mL (≈ 21.9 µM)
